Laboratory results as given in paper PMC8049364, “Quantification of Macrophage-Driven Inflammation During Myocardial Infarction with ^18F-LW223, a Novel TSPO Radiotracer with Binding Independent of the rs6971 Human Polymorphism” (Journal of Nuclear Medicine, 2021).

Test: Dosimetry from whole-body PET in mice (OLINDA/EXM, estimated for humans)
Format: in vivo
Method: Thirty-two PET scans were performed with ^18F-LW223 (17.8 ± 1.5 MBq, intravenous bolus, mean ± SEM). Naïve and MI rat scans were acquired immediately after intravenous bolus injection of ^18F-LW223. […] Dosimetry studies were conducted using mice and 240-min PET scans.
The following organs were identified as source organs: brain, heart, lung, gallbladder, liver, gut, adrenals, kidneys, and bladder. A whole-body VOI was drawn around the animal body and was used to quantify whole-body remainder activity as whole-body activity minus source-organ activity. At each time point, the measured activity of the source organs was expressed as the percentage injected dose. The residence time (τ), defined as the ratio of accumulated activity in the target organ (Ā) and injected activity (A0) (i.e., τ = Ā/A0 ([20])), was calculated as previously described ([21]). Calculated τ was normalized on the basis of the factors shown in Supplemental Table 3 ([22]–[26]) and entered into OLINDA/EXM software, version 1.0, to estimate organ doses and effective doses.
Organ Mouse Human Correction Factor
% Total body weight % Total body weight
Supplemental Table 3. Scaling factors for different organs in mice and humans based on their percentage contribution to total body weight. Data presented in this table was calculated based on previously published data.

- Effective dose (Female (n = 5)): 0.02 mSv/MBq
- Estimated absorbed dose, Adrenals (Female (n = 5)): 3.67 ×10^−2 mGy/MBq
- Estimated absorbed dose, Brain (Female (n = 5)): 0.56 ×10^−2 mGy/MBq
- Estimated absorbed dose, Breasts (Female (n = 5)): 0.86 ×10^−2 mGy/MBq
- Estimated absorbed dose, Gallbladder wall (Female (n = 5)): 2.46 ×10^−2 mGy/MBq
- Estimated absorbed dose, Heart wall (Female (n = 5)): 1.89 ×10^−2 mGy/MBq
- Estimated absorbed dose, Kidneys (Female (n = 5)): 1.54 ×10^−2 mGy/MBq
- Estimated absorbed dose, Liver (Female (n = 5)): 1.95 ×10^−2 mGy/MBq
- Estimated absorbed dose, Lower large intestine wall (Female (n = 5)): 9.26 ×10^−2 mGy/MBq
- Estimated absorbed dose, Lung (Female (n = 5)): 3.31 ×10^−2 mGy/MBq
- Estimated absorbed dose, Muscle (Female (n = 5)): 0.98 ×10^−2 mGy/MBq
- Estimated absorbed dose, Osteogenic cells (Female (n = 5)): 1.52 ×10^−2 mGy/MBq
- Estimated absorbed dose, Ovaries (Female (n = 5)): 1.66 ×10^−2 mGy/MBq
- Estimated absorbed dose, Pancreas (Female (n = 5)): 1.26 ×10^−2 mGy/MBq
- Estimated absorbed dose, Red marrow (Female (n = 5)): 0.98 ×10^−2 mGy/MBq
- Estimated absorbed dose, Skin (Female (n = 5)): 0.74 ×10^−2 mGy/MBq
- Estimated absorbed dose, Small intestine (Female (n = 5)): 1.30 ×10^−2 mGy/MBq
- Estimated absorbed dose, Spleen (Female (n = 5)): 1.11 ×10^−2 mGy/MBq
- Estimated absorbed dose, Stomach wall (Female (n = 5)): 1.15 ×10^−2 mGy/MBq
- Estimated absorbed dose, Thymus (Female (n = 5)): 1.07 ×10^−2 mGy/MBq
- Estimated absorbed dose, Thyroid (Female (n = 5)): 0.89 ×10^−2 mGy/MBq
- Estimated absorbed dose, Total body (Female (n = 5)): 1.07 ×10^−2 mGy/MBq
- Estimated absorbed dose, Upper large intestine wall (Female (n = 5)): 1.24 ×10^−2 mGy/MBq
- Estimated absorbed dose, Urinary bladder wall (Female (n = 5)): 1.48 ×10^−2 mGy/MBq
- Estimated absorbed dose, Uterus (Female (n = 5)): 1.29 ×10^−2 mGy/MBq
- Effective dose (Male (n = 8)): 0.02 mSv/MBq
- Estimated absorbed dose, Adrenals (Male (n = 8)): 2.22 ×10^−2 mGy/MBq
- Estimated absorbed dose, Brain (Male (n = 8)): 0.59 ×10^−2 mGy/MBq
- Estimated absorbed dose, Breasts (Male (n = 8)): 0.72 ×10^−2 mGy/MBq
- Estimated absorbed dose, Gallbladder wall (Male (n = 8)): 2.01 ×10^−2 mGy/MBq
- Estimated absorbed dose, Heart wall (Male (n = 8)): 2.03 ×10^−2 mGy/MBq
- Estimated absorbed dose, Kidneys (Male (n = 8)): 1.57 ×10^−2 mGy/MBq
- Estimated absorbed dose, Liver (Male (n = 8)): 1.30 ×10^−2 mGy/MBq
- Estimated absorbed dose, Lower large intestine wall (Male (n = 8)): 7.82 ×10^−2 mGy/MBq
- Estimated absorbed dose, Lung (Male (n = 8)): 3.10 ×10^−2 mGy/MBq
- Estimated absorbed dose, Muscle (Male (n = 8)): 0.80 ×10^−2 mGy/MBq
- Estimated absorbed dose, Osteogenic cells (Male (n = 8)): 1.20 ×10^−2 mGy/MBq
- Estimated absorbed dose, Pancreas (Male (n = 8)): 1.03 ×10^−2 mGy/MBq
- Estimated absorbed dose, Red marrow (Male (n = 8)): 0.82 ×10^−2 mGy/MBq
- Estimated absorbed dose, Skin (Male (n = 8)): 0.61 ×10^−2 mGy/MBq
- Estimated absorbed dose, Small intestine (Male (n = 8)): 1.11 ×10^−2 mGy/MBq
- Estimated absorbed dose, Spleen (Male (n = 8)): 0.91 ×10^−2 mGy/MBq
- Estimated absorbed dose, Stomach wall (Male (n = 8)): 0.94 ×10^−2 mGy/MBq
- Estimated absorbed dose, Testes (Male (n = 8)): 0.77 ×10^−2 mGy/MBq
- Estimated absorbed dose, Thymus (Male (n = 8)): 0.90 ×10^−2 mGy/MBq
- Estimated absorbed dose, Thyroid (Male (n = 8)): 0.79 ×10^−2 mGy/MBq
- Estimated absorbed dose, Total body (Male (n = 8)): 0.89 ×10^−2 mGy/MBq
- Estimated absorbed dose, Upper large intestine wall (Male (n = 8)): 1.00 ×10^−2 mGy/MBq
- Estimated absorbed dose, Urinary bladder wall (Male (n = 8)): 1.16 ×10^−2 mGy/MBq
- whole-body effective dose (female animals): 24.5 μSv/MBq
- whole-body effective dose (male animals): 20.5 μSv/MBq
- estimated dosimetry (effective dose) (mouse, in vivo): 0.020 mSv/MBq
- critical organ (dosimetry) (naïve mice): lower large intestine
- Effective dose (range over male and female): 20.5–24.5 μSv/MBq
SMILES: CC[C@@H](C)N(C)C(=O)c1nc2ccccc2c(-c2ccccc2)c1C[18F] [^18F-LW223]
